In ChEMBL document CHEMBL1909046, “DrugMatrix in vitro pharmacology data”:

Legend:
[1] = DRUGMATRIX: Purinergic P2X radioligand binding (ligand: [3H] alpha, beta-Methylene-ATP); format: cell membranes, Oryctolagus cuniculus, New Zealand albino, Urinary bladder, Membrane; conditions: Not Active = under 50% inhibition at 10 µM
[2] = molecular target: T1, Muscarinic acetylcholine receptor M5 (Homo sapiens, UniProt P08912); format: cell membranes, CHO-K1, Membrane; conditions: cho-k1; further: in other assays of this panel Not Active means under 50% inhibition at 10 µM
T1 sequence (P08912 whole entry): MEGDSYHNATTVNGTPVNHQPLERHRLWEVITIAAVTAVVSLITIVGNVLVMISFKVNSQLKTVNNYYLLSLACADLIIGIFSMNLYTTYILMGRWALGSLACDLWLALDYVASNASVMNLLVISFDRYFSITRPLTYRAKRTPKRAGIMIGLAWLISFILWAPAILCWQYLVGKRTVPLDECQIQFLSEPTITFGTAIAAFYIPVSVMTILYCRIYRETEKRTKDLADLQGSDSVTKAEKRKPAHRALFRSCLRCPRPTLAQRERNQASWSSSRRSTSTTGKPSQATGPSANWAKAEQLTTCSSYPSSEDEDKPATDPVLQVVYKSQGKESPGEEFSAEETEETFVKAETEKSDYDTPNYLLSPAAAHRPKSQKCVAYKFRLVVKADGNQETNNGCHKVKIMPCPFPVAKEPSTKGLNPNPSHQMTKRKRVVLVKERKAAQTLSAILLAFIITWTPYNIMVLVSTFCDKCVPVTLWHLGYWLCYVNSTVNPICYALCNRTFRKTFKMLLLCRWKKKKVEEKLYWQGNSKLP

[3] = molecular target: T2, Muscarinic acetylcholine receptor M2 (Homo sapiens, UniProt P08172); format: cell membranes, CHO-K1, Membrane; conditions: cho-k1; further: in other assays of this panel Not Active means under 50% inhibition at 10 µM
T2 sequence (P08172 whole entry): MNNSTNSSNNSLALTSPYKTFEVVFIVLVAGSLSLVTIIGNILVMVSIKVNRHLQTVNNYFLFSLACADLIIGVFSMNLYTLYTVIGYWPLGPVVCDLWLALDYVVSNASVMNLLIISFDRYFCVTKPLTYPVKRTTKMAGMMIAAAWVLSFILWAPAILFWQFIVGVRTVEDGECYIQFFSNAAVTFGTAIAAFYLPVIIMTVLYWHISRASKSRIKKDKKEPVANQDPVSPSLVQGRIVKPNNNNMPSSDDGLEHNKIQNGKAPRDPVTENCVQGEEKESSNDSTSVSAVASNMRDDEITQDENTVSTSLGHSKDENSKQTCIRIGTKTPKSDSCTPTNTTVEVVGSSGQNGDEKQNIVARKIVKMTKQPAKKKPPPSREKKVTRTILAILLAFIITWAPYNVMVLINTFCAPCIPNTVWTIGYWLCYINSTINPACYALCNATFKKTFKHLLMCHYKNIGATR

[4] = molecular target: Melanocortin receptor 3 (Homo sapiens, UniProt P41968); format: cell membranes, HEK293, Membrane; conditions: hek293; further: in other assays of this panel Not Active means under 50% inhibition at 10 µM
[5] = DRUGMATRIX: Phosphodiesterase PDE4 enzyme inhibition (substrate: [3H]cAMP + cAMP); conditions: u-937; Not Active = under 50% inhibition at 10 µM
[6] = DRUGMATRIX: Nicotinic Acetylcholine radioligand binding (ligand: [125I] Epibatidine); format: cell membranes, Membrane; conditions: imr-32; Not Active = under 50% inhibition at 10 µM

Sequence of Melanocortin receptor 3 (P41968 whole entry): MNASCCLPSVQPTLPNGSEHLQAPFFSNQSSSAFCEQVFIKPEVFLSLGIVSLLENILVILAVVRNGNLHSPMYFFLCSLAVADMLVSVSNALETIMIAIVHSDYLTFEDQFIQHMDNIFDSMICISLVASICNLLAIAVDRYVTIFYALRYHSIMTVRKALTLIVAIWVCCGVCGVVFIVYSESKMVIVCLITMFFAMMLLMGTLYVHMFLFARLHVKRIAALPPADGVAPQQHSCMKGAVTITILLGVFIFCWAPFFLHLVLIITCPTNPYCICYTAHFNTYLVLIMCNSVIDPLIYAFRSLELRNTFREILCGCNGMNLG

C=CCO [ALLYL ALCOHOL]
Not Active: IC50 [1] | Ki [1] | IC50 [2] | IC50 [3] | IC50 [4] | IC50 [5] | Ki [5] | IC50 [6] | Ki [6]

Nc1nc(N)c2nc(CNc3ccc(C(=O)N[C@@H](CCC(=O)O)C(=O)O)cc3)cnc2n1 [AMINOPTERIN]
Not Active: IC50 [1] | Ki [1] | IC50 [2] | IC50 [3] | IC50 [4] | IC50 [5] | Ki [5] | IC50 [6] | Ki [6]

Nc1ccc(C(=O)O)c(O)c1 [AMINOSALICYLIC ACID]
Not Active: IC50 [1] | Ki [1] | IC50 [2] | IC50 [3] | IC50 [4] | IC50 [5] | Ki [5] | IC50 [6] | Ki [6]

C[C@@H]1[C@H](O)[C@@H](C)/C=C/C=C/C=C/C=C/C=C/C=C/C=C/[C@H](O[C@@H]2O[C@H](C)[C@@H](O)[C@H](N)[C@@H]2O)C[C@@H]2O[C@](O)(C[C@@H](O)C[C@@H](O)[C@H](O)CC[C@@H](O)C[C@@H](O)CC(=O)O[C@H]1C)C[C@H](O)[C@H]2C(=O)O [AMPHOTERICIN B]
Not Active: IC50 [1] | Ki [1] | IC50 [2] | IC50 [3] | IC50 [4] | IC50 [5] | Ki [5] | IC50 [6] | Ki [6]

CC(C)(C#N)c1cc(Cn2cncn2)cc(C(C)(C)C#N)c1 [ANASTROZOLE]
Not Active: IC50 [1] | Ki [1] | IC50 [2] | IC50 [3] | IC50 [4] | IC50 [5] | Ki [5] | IC50 [6] | Ki [6]

C[C@]12CC[C@@H](O)C[C@@H]1CC[C@@H]1[C@@H]2CC[C@]2(C)C(=O)CC[C@@H]12 [ANDROSTERONE]
Not Active: IC50 [1] | Ki [1] | IC50 [2] | IC50 [3] | IC50 [4] | IC50 [5] | Ki [5] | IC50 [6] | Ki [6]

CC(C)NCC(O)COc1ccc(CC(N)=O)cc1 (stereo not given) [ATENOLOL]
Not Active: IC50 [1] | Ki [1] | IC50 [2] | IC50 [3] | IC50 [4] | IC50 [5] | Ki [5] | IC50 [6] | Ki [6]

NCC(CC(=O)O)c1ccc(Cl)cc1 (stereo not given) [BACLOFEN]
Not Active: IC50 [1] | Ki [1] | IC50 [2] | IC50 [3] | IC50 [4] | IC50 [5] | Ki [5] | IC50 [6] | Ki [6]

O=C(O)c1ccccc1 [BENZOIC ACID]
Not Active: IC50 [1] | Ki [1] | IC50 [2] | IC50 [3] | IC50 [4] | IC50 [5] | Ki [5] | IC50 [6] | Ki [6]

c1ccc2sc(SSc3nc4ccccc4s3)nc2c1 [BENZOTHIAZYL DISULFIDE]
Not Active: IC50 [1] | Ki [1] | IC50 [2] | IC50 [3] | IC50 [4] | IC50 [5] | Ki [5] | IC50 [6] | Ki [6]

OC[C@H]1O[C@@H]2O[C@H]3[C@H](O)[C@@H](O)[C@@H](O[C@H]4[C@H](O)[C@@H](O)[C@@H](O[C@H]5[C@H](O)[C@@H](O)[C@@H](O[C@H]6[C@H](O)[C@@H](O)[C@@H](O[C@H]7[C@H](O)[C@@H](O)[C@@H](O[C@H]8[C@H](O)[C@@H](O)[C@@H](O[C@H]1[C@H](O)[C@H]2O)O[C@@H]8CO)O[C@@H]7CO)O[C@@H]6CO)O[C@@H]5CO)O[C@@H]4CO)O[C@@H]3CO [BETADEX]
Not Active: IC50 [1] | Ki [1] | IC50 [2] | IC50 [3] | IC50 [4] | IC50 [5] | Ki [5] | IC50 [6] | Ki [6]

C[C@H]1C[C@H]2[C@@H]3CCC4=CC(=O)C=C[C@]4(C)[C@@]3(F)[C@@H](O)C[C@]2(C)[C@@]1(O)C(=O)CO [BETAMETHASONE]
Not Active: IC50 [1] | Ki [1] | IC50 [2] | IC50 [3] | IC50 [4] | IC50 [5] | Ki [5] | IC50 [6] | Ki [6]

CC(C)(c1ccc(O)cc1)c1ccc(O)cc1 [BISPHENOL A]
Not Active: IC50 [1] | Ki [1] | IC50 [2] | IC50 [3] | IC50 [4] | IC50 [5] | Ki [5] | IC50 [6] | Ki [6]

Cc1c(N)nc([C@H](CC(N)=O)NC[C@H](N)C(N)=O)nc1C(=O)N[C@H](C(=O)N[C@H](C)[C@@H](O)[C@H](C)C(=O)N[C@H](C(=O)NCCc1nc(-c2nc(C(=O)NCCC[S+](C)C)cs2)cs1)[C@@H](C)O)[C@@H](O[C@@H]1O[C@@H](CO)[C@@H](O)[C@H](O)[C@@H]1O[C@H]1O[C@H](CO)[C@@H](O)[C@H](OC(N)=O)[C@@H]1O)c1c[nH]cn1.[Br-] [BLEOMYCIN A2]
Not Active: IC50 [1] | Ki [1] | IC50 [2] | IC50 [3] | IC50 [4] | IC50 [5] | Ki [5] | IC50 [6] | Ki [6]

CN(Cc1cc(Br)cc(Br)c1N)C1CCCCC1 [BROMHEXINE]
Not Active: IC50 [1] | Ki [1] | IC50 [2] | IC50 [3] | IC50 [4] | IC50 [5] | Ki [5] | IC50 [6] | Ki [6]
